Reference: the kinase profiling compilation of Christmann-Franck et al. (2016)

Assays:
Experiment in all cases: KINOMEscan competition binding
Details in all cases: compound 10.0 µM
[1] = molecular target: LATS2 (human) (UniProt Q9NRM7)
[2] = molecular target: DAPK1 (human) (UniProt P53355)
[3] = molecular target: NEK3 (human) (UniProt P51956)
[4] = molecular target: EIF2AK1 (human) (UniProt Q9BQI3)
[5] = molecular target: MAP4K1 (human) (UniProt Q92918)
[6] = molecular target: STK3 (human) (UniProt Q13188)
[7] = molecular target: PIP5K1A (human) (UniProt Q99755)
[8] = molecular target: ULK3 (human) (UniProt Q6PHR2)
[9] = molecular target: DYRK2 (human) (UniProt Q92630)
[10] = molecular target: NLK (human) (UniProt Q9UBE8)
[11] = molecular target: LCK (human) (UniProt P06239)
[12] = molecular target: YSK4 (human) (UniProt Q56UN5)
[13] = molecular target: AURKB (human) (UniProt Q96GD4)
[14] = molecular target: MAPK12 (human) (UniProt P53778)
[15] = molecular target: RAF1 (human) (UniProt P04049)
[16] = molecular target: BRSK2 (human) (UniProt Q8IWQ3)
[17] = molecular target: HUNK (human) (UniProt P57058)
[18] = molecular target: CSNK2A2 (human) (UniProt P19784)
[19] = molecular target: MYO3A (human) (UniProt Q8NEV4)
[20] = molecular target: EPHB4 (human) (UniProt P54760)
[21] = molecular target: BLK (human) (UniProt P51451)
[22] = molecular target: PRKG2 (human) (UniProt Q13237)
[23] = molecular target: AURKA (human) (UniProt O14965)
[24] = molecular target: INSRR (human) (UniProt P14616)
[25] = molecular target: DDR2 (human) (UniProt Q16832)
[26] = molecular target: SRC (human) (UniProt P12931)
[27] = molecular target: CDK5 (human) (UniProt Q00535)
[28] = molecular target: STK38L (human) (UniProt Q9Y2H1)
[29] = molecular target: TAOK2 (human) (UniProt Q9UL54)
[30] = molecular target: NEK11 (human) (UniProt Q8NG66)
[31] = molecular target: IGF1R (human) (UniProt P08069)
[32] = molecular target: SIK1 (human) (UniProt P57059)
[33] = molecular target: MAPK9 (human) (UniProt P45984)
[34] = molecular target: CSNK1G1 (human) (UniProt Q9HCP0)
[35] = molecular target: TEK (human) (UniProt Q02763)
[36] = molecular target: CHEK1 (human) (UniProt O14757)
[37] = molecular target: TNIK (human) (UniProt Q9UKE5)
[38] = molecular target: MST4 (human) (UniProt Q9P289)
[39] = molecular target: MAPKAPK2 (human) (UniProt P49137)
[40] = molecular target: MAPK10 (human) (UniProt P53779)
[41] = molecular target: TAOK3 (human) (UniProt Q9H2K8)

Sequence of MAPKAPK2 (human) (P49137 whole entry, looked up): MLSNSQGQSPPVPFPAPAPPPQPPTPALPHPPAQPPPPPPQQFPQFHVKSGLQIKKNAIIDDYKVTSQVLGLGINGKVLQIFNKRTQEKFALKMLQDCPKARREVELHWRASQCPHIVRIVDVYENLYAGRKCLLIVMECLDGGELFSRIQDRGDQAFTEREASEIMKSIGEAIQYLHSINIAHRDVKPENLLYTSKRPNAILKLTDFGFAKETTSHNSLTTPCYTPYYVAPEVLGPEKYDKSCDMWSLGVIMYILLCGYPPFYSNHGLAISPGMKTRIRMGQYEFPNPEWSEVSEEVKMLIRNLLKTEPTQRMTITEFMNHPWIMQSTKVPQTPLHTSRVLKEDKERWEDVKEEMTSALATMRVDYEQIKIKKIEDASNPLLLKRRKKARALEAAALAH
Sequence of AURKA (human) (O14965 whole entry, looked up): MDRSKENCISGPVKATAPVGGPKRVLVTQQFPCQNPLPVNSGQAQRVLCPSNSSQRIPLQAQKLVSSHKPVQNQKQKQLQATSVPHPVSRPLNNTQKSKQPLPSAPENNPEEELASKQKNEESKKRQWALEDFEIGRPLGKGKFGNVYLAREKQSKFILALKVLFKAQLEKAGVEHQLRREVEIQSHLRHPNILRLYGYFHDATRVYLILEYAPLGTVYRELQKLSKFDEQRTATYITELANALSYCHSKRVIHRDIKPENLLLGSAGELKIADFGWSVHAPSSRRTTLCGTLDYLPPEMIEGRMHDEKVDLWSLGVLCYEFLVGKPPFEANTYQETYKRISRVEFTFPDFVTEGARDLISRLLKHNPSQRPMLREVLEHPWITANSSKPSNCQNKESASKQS
Sequence of INSRR (human) (P14616 whole entry, looked up): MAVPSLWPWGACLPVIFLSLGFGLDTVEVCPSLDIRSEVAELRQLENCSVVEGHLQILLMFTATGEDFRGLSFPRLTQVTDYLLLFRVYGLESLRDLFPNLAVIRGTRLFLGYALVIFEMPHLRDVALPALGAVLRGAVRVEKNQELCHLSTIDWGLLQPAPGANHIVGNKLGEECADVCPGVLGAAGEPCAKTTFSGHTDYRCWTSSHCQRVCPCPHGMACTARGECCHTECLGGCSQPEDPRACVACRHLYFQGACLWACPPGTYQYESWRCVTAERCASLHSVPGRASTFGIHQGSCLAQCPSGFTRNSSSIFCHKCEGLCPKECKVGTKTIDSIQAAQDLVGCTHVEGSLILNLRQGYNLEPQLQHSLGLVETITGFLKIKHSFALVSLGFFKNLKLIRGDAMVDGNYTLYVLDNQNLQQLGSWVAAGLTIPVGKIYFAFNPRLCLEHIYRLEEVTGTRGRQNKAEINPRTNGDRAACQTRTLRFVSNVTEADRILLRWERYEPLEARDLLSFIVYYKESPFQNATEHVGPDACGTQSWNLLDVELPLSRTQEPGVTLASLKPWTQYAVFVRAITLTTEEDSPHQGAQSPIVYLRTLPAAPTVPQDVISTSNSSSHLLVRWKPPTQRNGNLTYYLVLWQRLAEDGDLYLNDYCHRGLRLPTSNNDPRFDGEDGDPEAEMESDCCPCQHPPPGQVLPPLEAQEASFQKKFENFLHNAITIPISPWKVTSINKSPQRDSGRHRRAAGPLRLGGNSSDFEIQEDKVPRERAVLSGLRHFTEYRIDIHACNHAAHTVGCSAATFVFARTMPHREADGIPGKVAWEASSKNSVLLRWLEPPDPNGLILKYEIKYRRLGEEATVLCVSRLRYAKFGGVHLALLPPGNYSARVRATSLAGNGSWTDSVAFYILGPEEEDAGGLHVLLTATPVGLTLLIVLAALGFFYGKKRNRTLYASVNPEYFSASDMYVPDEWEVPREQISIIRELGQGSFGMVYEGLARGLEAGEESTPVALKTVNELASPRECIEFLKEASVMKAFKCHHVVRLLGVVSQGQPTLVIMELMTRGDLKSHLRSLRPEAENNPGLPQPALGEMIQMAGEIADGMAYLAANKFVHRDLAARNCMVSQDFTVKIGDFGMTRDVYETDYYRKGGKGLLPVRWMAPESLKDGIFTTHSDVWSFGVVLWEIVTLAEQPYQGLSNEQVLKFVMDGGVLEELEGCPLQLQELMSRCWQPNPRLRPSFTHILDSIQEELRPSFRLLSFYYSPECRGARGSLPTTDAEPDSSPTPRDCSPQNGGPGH
Sequence of YSK4 (human) (Q56UN5 whole entry, looked up): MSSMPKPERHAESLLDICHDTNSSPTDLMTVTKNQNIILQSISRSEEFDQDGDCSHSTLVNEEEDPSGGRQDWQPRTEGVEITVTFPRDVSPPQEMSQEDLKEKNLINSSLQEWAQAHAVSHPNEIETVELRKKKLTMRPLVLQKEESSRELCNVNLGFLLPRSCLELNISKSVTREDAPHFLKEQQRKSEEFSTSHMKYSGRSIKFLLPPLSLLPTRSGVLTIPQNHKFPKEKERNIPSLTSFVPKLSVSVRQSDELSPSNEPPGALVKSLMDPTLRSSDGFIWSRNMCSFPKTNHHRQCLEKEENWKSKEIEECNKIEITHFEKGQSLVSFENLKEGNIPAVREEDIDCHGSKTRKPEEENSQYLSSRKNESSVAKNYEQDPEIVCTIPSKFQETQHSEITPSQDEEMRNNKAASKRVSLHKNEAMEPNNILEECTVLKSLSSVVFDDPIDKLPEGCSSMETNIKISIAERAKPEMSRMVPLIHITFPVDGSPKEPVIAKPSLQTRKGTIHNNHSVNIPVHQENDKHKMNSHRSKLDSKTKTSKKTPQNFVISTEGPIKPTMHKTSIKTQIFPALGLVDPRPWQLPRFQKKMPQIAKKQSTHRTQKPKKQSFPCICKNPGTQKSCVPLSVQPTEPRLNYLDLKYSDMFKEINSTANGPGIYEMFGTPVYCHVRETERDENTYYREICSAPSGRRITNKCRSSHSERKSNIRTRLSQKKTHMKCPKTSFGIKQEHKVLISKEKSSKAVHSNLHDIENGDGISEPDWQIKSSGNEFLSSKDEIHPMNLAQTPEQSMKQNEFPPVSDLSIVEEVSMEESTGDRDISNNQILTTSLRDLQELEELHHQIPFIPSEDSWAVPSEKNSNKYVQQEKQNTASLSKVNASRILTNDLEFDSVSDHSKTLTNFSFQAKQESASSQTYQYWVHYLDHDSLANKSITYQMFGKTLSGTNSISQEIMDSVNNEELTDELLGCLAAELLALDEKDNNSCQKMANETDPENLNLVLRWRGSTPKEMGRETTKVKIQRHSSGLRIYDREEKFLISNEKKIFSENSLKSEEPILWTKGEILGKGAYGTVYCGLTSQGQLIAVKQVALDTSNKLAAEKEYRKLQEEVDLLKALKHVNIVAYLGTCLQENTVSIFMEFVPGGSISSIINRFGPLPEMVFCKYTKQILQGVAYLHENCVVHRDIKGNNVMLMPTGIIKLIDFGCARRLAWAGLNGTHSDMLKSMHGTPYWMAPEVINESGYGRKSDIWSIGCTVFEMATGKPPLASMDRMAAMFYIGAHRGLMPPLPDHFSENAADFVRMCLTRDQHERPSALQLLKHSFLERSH
Sequence of STK3 (human) (Q13188 whole entry, looked up): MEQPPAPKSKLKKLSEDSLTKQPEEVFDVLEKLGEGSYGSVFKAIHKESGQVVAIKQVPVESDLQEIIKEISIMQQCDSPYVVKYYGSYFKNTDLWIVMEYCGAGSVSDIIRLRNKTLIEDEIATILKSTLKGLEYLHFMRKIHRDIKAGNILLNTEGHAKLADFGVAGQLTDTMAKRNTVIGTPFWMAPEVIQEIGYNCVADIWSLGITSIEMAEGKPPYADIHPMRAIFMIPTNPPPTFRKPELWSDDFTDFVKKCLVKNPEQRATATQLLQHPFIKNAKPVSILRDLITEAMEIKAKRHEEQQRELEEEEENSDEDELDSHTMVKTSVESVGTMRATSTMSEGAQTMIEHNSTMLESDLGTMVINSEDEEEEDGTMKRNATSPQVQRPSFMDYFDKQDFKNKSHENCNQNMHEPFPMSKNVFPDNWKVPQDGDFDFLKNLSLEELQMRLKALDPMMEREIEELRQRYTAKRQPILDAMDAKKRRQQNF
Sequence of NEK3 (human) (P51956 whole entry, looked up): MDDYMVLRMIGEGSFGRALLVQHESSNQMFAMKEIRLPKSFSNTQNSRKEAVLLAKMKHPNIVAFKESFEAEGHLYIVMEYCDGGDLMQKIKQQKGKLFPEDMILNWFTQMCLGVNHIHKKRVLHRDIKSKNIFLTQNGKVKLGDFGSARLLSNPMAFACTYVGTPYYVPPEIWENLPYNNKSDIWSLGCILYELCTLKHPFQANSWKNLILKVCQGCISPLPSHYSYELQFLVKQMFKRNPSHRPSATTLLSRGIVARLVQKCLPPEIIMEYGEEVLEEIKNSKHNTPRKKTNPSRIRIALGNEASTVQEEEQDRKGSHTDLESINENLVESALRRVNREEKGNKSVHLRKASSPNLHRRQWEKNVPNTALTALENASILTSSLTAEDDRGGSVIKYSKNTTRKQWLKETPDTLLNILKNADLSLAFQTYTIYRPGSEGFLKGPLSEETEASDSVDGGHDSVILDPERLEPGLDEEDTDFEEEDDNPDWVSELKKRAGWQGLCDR
Sequence of CHEK1 (human) (O14757 whole entry, looked up): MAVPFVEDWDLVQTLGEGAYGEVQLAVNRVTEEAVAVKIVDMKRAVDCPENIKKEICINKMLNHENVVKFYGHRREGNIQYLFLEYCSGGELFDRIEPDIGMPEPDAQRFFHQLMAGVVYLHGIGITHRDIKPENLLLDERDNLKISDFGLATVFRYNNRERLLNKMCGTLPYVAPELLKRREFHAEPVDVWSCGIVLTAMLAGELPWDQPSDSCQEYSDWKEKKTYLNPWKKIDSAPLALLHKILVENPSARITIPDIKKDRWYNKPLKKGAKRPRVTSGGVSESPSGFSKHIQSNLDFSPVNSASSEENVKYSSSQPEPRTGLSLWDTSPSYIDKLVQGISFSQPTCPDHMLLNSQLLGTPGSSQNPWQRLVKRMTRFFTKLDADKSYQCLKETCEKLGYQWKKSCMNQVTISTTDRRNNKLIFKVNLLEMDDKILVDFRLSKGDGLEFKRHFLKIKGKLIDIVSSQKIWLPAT

SMILES: CC1=C(C(=O)Nc2cc3cn[nH]c3cc2F)C(c2ccc(C(F)(F)F)cc2)CC(=O)N1 (stereo not given)
- kinase still bound, per cent of control [1]: 10%
- kinase still bound, per cent of control [2]: 81%
- kinase still bound, per cent of control [3]: 100%
- kinase still bound, per cent of control [4]: 89%
- kinase still bound, per cent of control [5]: 87%
- kinase still bound, per cent of control [6]: 63%
- kinase still bound, per cent of control [7]: 89%
- kinase still bound, per cent of control [8]: 99%
- kinase still bound, per cent of control [9]: 100%
- kinase still bound, per cent of control [10]: 92%
- kinase still bound, per cent of control [11]: 30%
- kinase still bound, per cent of control [12]: 50%
- kinase still bound, per cent of control [13]: 42%
- kinase still bound, per cent of control [14]: 79%
- kinase still bound, per cent of control [15]: 100%
- kinase still bound, per cent of control [16]: 90%
- kinase still bound, per cent of control [17]: 100%
- kinase still bound, per cent of control [18]: 86%
- kinase still bound, per cent of control [19]: 85%
- kinase still bound, per cent of control [20]: 88%
- kinase still bound, per cent of control [21]: 12%
- kinase still bound, per cent of control [22]: 29%
- kinase still bound, per cent of control [23]: 46%
- kinase still bound, per cent of control [24]: 99%
- kinase still bound, per cent of control [25]: 100%
- kinase still bound, per cent of control [26]: 83%
- kinase still bound, per cent of control [27]: 80%
- kinase still bound, per cent of control [28]: 12%
- kinase still bound, per cent of control [29]: 96%
- kinase still bound, per cent of control [30]: 100%
- kinase still bound, per cent of control [31]: 98%
- kinase still bound, per cent of control [32]: 77%
- kinase still bound, per cent of control [33]: 92%
- kinase still bound, per cent of control [34]: 100%
- kinase still bound, per cent of control [35]: 83%
- kinase still bound, per cent of control [36]: 100%
- kinase still bound, per cent of control [37]: 100%
- kinase still bound, per cent of control [38]: 24%
- kinase still bound, per cent of control [39]: 100%
- kinase still bound, per cent of control [40]: 88%
- kinase still bound, per cent of control [41]: 96%

SMILES: COc1cc2c(Nc3ccc(NC(=O)c4ccccc4)cc3)ncnc2cc1OCCCN1CCOCC1
- kinase still bound, per cent of control [1]: 82%
- kinase still bound, per cent of control [2]: 84%
- kinase still bound, per cent of control [3]: 100%
- kinase still bound, per cent of control [4]: 20%
- kinase still bound, per cent of control [5]: 60%
- kinase still bound, per cent of control [6]: 100%
- kinase still bound, per cent of control [7]: 100%
- kinase still bound, per cent of control [8]: 7.3%
- kinase still bound, per cent of control [9]: 91%
- kinase still bound, per cent of control [10]: 100%
- kinase still bound, per cent of control [12]: 23%
- kinase still bound, per cent of control [13]: 0.15%
- kinase still bound, per cent of control [14]: 49%
- kinase still bound, per cent of control [15]: 100%
- kinase still bound, per cent of control [16]: 100%
- kinase still bound, per cent of control [17]: 81%
- kinase still bound, per cent of control [18]: 100%
- kinase still bound, per cent of control [19]: 79%
- kinase still bound, per cent of control [20]: 100%
- kinase still bound, per cent of control [21]: 0.5%
- kinase still bound, per cent of control [22]: 91%
- kinase still bound, per cent of control [23]: 8.6%
- kinase still bound, per cent of control [24]: 100%
- kinase still bound, per cent of control [25]: 100%
- kinase still bound, per cent of control [26]: 32%
- kinase still bound, per cent of control [28]: 100%
- kinase still bound, per cent of control [29]: 94%
- kinase still bound, per cent of control [30]: 100%
- kinase still bound, per cent of control [31]: 100%
- kinase still bound, per cent of control [32]: 82%
- kinase still bound, per cent of control [33]: 27%
- kinase still bound, per cent of control [34]: 97%
- kinase still bound, per cent of control [35]: 33%
- kinase still bound, per cent of control [36]: 100%
- kinase still bound, per cent of control [37]: 51%
- kinase still bound, per cent of control [38]: 44%
- kinase still bound, per cent of control [39]: 100%
- kinase still bound, per cent of control [40]: 42%
- kinase still bound, per cent of control [41]: 95%

SMILES: N#C/C(=C1/Nc2ccccc2S1)c1ccnc(NCCc2cccnc2)n1
- kinase still bound, per cent of control [1]: 92%
- kinase still bound, per cent of control [2]: 32%
- kinase still bound, per cent of control [3]: 58%
- kinase still bound, per cent of control [4]: 100%
- kinase still bound, per cent of control [5]: 100%
- kinase still bound, per cent of control [6]: 59%
- kinase still bound, per cent of control [7]: 18%
- kinase still bound, per cent of control [8]: 12%
- kinase still bound, per cent of control [9]: 0.7%
- kinase still bound, per cent of control [10]: 100%
- kinase still bound, per cent of control [11]: 100%
- kinase still bound, per cent of control [12]: 3.2%
- kinase still bound, per cent of control [13]: 89%
- kinase still bound, per cent of control [14]: 13%
- kinase still bound, per cent of control [15]: 100%
- kinase still bound, per cent of control [16]: 100%
- kinase still bound, per cent of control [17]: 92%
- kinase still bound, per cent of control [18]: 1%
- kinase still bound, per cent of control [19]: 80%
- kinase still bound, per cent of control [20]: 100%
- kinase still bound, per cent of control [21]: 100%
- kinase still bound, per cent of control [22]: 81%
- kinase still bound, per cent of control [23]: 100%
- kinase still bound, per cent of control [24]: 100%
- kinase still bound, per cent of control [25]: 100%
- kinase still bound, per cent of control [26]: 100%
- kinase still bound, per cent of control [27]: 100%
- kinase still bound, per cent of control [28]: 100%
- kinase still bound, per cent of control [29]: 45%
- kinase still bound, per cent of control [30]: 100%
- kinase still bound, per cent of control [31]: 100%
- kinase still bound, per cent of control [32]: 100%
- kinase still bound, per cent of control [33]: 0.25%
- kinase still bound, per cent of control [34]: 42%
- kinase still bound, per cent of control [35]: 100%
- kinase still bound, per cent of control [36]: 100%
- kinase still bound, per cent of control [37]: 70%
- kinase still bound, per cent of control [38]: 100%
- kinase still bound, per cent of control [39]: 100%
- kinase still bound, per cent of control [41]: 24%
